Source: patent US10611760B2, “Therapeutic compounds as inhibitors of the orexin-1 receptor” (C4X Discovery Limited, priority 2014, dated 2020)

Legend:
Format in all cases: cell-based
orexin-1 = biological target: T1, orexin-1 (Homo sapiens, UniProt O43613); experiment: Antagonism against orexin-1 in the aforementioned (above identified) intracellular calcium assays
T1 construct: expressed in transfected cells
T1 sequence (O43613 1-425): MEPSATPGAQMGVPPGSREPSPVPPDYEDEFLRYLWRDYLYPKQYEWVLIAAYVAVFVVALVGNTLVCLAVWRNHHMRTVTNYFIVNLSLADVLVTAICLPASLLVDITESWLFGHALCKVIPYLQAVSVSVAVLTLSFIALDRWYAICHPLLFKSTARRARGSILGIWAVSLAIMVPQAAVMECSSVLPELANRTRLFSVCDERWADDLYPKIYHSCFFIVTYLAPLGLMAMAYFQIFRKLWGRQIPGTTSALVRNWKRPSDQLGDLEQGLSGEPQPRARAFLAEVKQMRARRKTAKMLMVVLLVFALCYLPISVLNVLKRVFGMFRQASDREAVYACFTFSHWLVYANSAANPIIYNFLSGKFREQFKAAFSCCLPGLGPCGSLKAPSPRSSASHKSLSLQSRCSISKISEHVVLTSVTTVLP
Source text: Antagonism against orexin receptors has been measured for each example compound using at least one of the following procedures. […] These values may fluctuate depending on the daily cellular assay performance. Fluctuations of this kind are known to those skilled in the art. […] Data highlighted with an asterix (*) is derived from a single experiment, otherwise all data reported is an average of at least two independant replicate experiments. […]

hOX2R = biological target: T2, hOX2R (Homo sapiens, UniProt O43614); experiment: Whole cell FLIPR functional assay, comparison with reference compounds, hOX2R; set-up: expressed in transfected cells; conditions: read-out: hOX2R pIC50 (converted)
T2 sequence (O43614 1-444): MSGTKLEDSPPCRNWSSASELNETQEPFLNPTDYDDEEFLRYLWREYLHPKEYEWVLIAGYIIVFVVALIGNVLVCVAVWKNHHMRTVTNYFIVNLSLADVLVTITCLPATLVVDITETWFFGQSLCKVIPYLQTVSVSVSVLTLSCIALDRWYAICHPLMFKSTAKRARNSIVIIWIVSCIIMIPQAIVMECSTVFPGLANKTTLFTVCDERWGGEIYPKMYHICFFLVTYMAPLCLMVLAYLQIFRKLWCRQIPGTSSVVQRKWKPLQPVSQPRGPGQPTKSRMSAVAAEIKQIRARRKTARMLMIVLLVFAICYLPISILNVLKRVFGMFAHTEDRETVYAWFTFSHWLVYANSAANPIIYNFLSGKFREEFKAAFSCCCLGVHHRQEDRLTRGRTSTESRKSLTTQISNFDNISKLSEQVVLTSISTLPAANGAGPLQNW
Source text: (§1) As indicated herein, by whole cell FLIPR functional assay data and by comparison with reference compounds not claimed within the present invention, the compounds of the present invention provide increased selectivity for the orexin-1 receptor over the orexin-2 receptor. The increased selectivity for the orexin-1 receptor over the orexin-2 receptor in the whole cell FLIPR functional assay provides enhanced predictive value for determining in vivo efficacy. Increasing the functional selectivity for the orexin-1 receptor reduces the potential for dual receptor antagonism in vivo. Such greater functional selectivity may provide benefits over other orexin receptor antagonists that are known in the art.

hOX1R [1] = biological target: T3, hOX1R (Homo sapiens, UniProt O43613); experiment: Whole cell FLIPR functional assay, comparison with reference compounds, hOX1R; set-up: expressed in transfected cells; conditions: for Selectivity: orexin-1 receptor over orexin-2 receptor; for IC50: read-out: hOX1R pIC50 (converted)
T3 sequence (O43613 1-425): T1 sequence (O43613 1-425)
Source text: as §1

hOX1R [2] = biological target: T3, hOX1R; experiment: Intracellular calcium measurements using division-arrested cells, OX1; conditions: agonist orexin A at 2×EC50, * = single experiment, otherwise average of at least two, read-out: pIC50 OX1 (converted)
Procedure, shortened: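 Division-arrested cells expressing human OX1 or OX2 were seeded for 16 h, then loaded with Calcium 5 dye plus probenecid for 1 h at 37 °C. Compounds in HEPES-buffered HBSS with 0.1% BSA, pH 7.4, top final concentration 10 μM, were added 10 min before the FlexStation calcium read.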

**Q.** With `CC[C@@H](CNc1ccc(Cl)cn1)N(C)C(=O)c1cc(C)ccc1N1CCN(C)CC1` [(S)—N-(1-((5-chloropyridin-2-yl)amino)butan-2-yl)-N,5-dimethyl-2-(4-methylpiperazin-1-yl)benzamide] as the compound, how does the IC50 (orexin-1) read?
**A.** The IC50 was over 10 µM.

**Q.** For `CC[C@@H](CNc1ccc(Cl)cn1)NC(=O)c1cc(C)ccc1N1CCN(C)CC1` [(S)—N-(1-((5-chloropyridin-2-yl)amino)butan-2-yl)-5-methyl-2-(4-methylpiperazin-1-yl)benzamide], which IC50 (orexin-1) is on record?
**A.** The IC50 was over 10 µM.

**Q.** `CC[C@@H](COc1nc2ccccc2n1C)NC(=O)c1cc(C)ccc1-n1nccn1` [(S)-5-methyl-N-(1-((1-methyl-1H-benzo[d]imidazol-2-yl)oxy)butan-2-yl)-2-(2H-1,2,3-triazol-2-yl)benzamide] was tested. Which IC50 (orexin-1) did it give?
**A.** The IC50 was over 10 µM.

**Q.** How did the IC50 (orexin-1) turn out when `CC[C@@H](CNc1ccc(Cl)cn1)N(C)C(=O)c1nc(C)ncc1-n1nccn1` [(S)—N-(1-((5-chloropyridin-2-yl)amino)butan-2-yl)-N,2-dimethyl-5-(2H-1,2,3-triazol-2-yl)pyrimidine-4-carboxamide] was run?
**A.** Its IC50 is over 10 µM.

**Q.** With `CC(C)[C@H](CNc1ccc(Cl)cn1)N(C)C(=O)c1ccccc1-c1ccccc1` as the compound, how does the IC50 (hOX2R) read?
**A.** Its IC50 is 2 µM.

**Q.** And the Selectivity (hOX1R [1])?
**A.** The Selectivity was “Selectivity 1.9x”.

**Q.** What about the IC50 (hOX1R [1]) of the same compound?
**A.** The IC50 was 1 µM.

**Q.** With `CC[C@@H](CNc1ccc(Cl)cn1)N(C)C(=O)c1cc(C(F)(F)F)ccc1-n1ccnn1` [(S)—N-(1-((5-chloropyridin-2-yl)amino)butan-2-yl)-N-methyl-2-(1H-1,2,3-triazol-1-yl)-5-(trifluoromethyl)benzamide] as the compound, how does the IC50 (orexin-1) read?
**A.** Its IC50 is 4.9 µM.

**Q.** Which IC50 (orexin-1) does the source give for `CC[C@@H](CNC(=O)c1ccccn1)N(C)C(=O)c1cc(Cl)ccc1-n1nccn1` [(S)—N-(2-(5-chloro-N-methyl-2-(2H-1,2,3-triazol-2-yl)benzamido)butyl)picolinamide] here?
**A.** Its IC50 is over 10 µM.

**Q.** Which IC50 (orexin-1) does the source give for `CC[C@@H](CNc1ncc(C(F)(F)F)cn1)N(C)C(=O)c1nc(C(C)(C)O)ccc1-n1nccn1` [(S)-6-(2-hydroxypropan-2-yl)-N-methyl-3-(2H-1,2,3-triazol-2-yl)-N-(1-((5-(trifluoromethyl)pyrimidin-2-yl)amino)butan-2-yl)picolinamide] here?
**A.** The IC50 was over 10 µM.

**Q.** `CC[C@@H](CNc1ccc(Cl)cn1)NC(=O)c1cc(C)ccc1N1CCOCC1` [(S)—N-(1-((5-chloropyridin-2-yl)amino)butan-2-yl)-5-methyl-2-morpholinobenzamide] was tested. Which IC50 (orexin-1) did it give?
**A.** The IC50 was over 10 µM.

**Q.** `CC[C@@H](COc1nc2ccccc2n1C)N(C)C(=O)c1cc(C)ccc1-n1nccn1` [(S)—N,5-dimethyl-N-(1-((1-methyl-1H-benzo[d]imidazol-2-yl)oxy)butan-2-yl)-2-(2H-1,2,3-triazol-2-yl)benzamide] was tested. Which IC50 (orexin-1) did it give?
**A.** Its IC50 is over 10 µM.

**Q.** With `CC[C@@H](CNc1ccc2nccn2c1)N(C)C(=O)c1cc(Cl)ccc1-n1nccn1` [(S)-5-chloro-N-(1-(imidazo[1,2-a]pyridin-6-ylamino)butan-2-yl)-N-methyl-2-(2H-1,2,3-triazol-2-yl)benzamide] as the compound, how does the IC50 (orexin-1) read?
**A.** The IC50 was over 10 µM.

**Q.** Which IC50 (hOX1R [2]) does the source give for `CC(C)[C@@H](CNc1ccc(Cl)cn1)N(C)C(=O)c1ccccc1-c1ccccc1` [Example 10, (S)—N-(1-((5-chloropyridin-2-yl)amino)-3-methylbutan-2-yl)-N-methyl-[1,1′-biphenyl]-2-carboxamide] here?
**A.** Its IC50 is 0.0794 µM.

**Q.** What about the IC50 (hOX2R) of the same compound?
**A.** The IC50 was 6.31 µM.

**Q.** What about the Selectivity (hOX1R [1]) of the same compound?
**A.** The Selectivity was “Selectivity 80x”.

**Q.** And the IC50 (hOX1R [1])?
**A.** The IC50 was 0.0794 µM.

**Q.** Which IC50 (hOX2R) does the source give for `CN(CCNc1ccc(Cl)cn1)C(=O)c1ccccc1-c1ccccc1` here?
**A.** Its IC50 is 0.0794 µM.

**Q.** And the Selectivity (hOX1R [1])?
**A.** The Selectivity was “Selectivity 1.1x”.

**Q.** And the IC50 (hOX1R [1])?
**A.** The IC50 was 0.0631 µM.

**Q.** Which IC50 (orexin-1) does the source give for `Cc1ccc(-n2nccn2)c(C(=O)N(C)C(CNc2ccc(Cl)cn2)C2COC2)c1` (stereo not drawn) [N-(2-((5-chloropyridin-2-yl)amino)-1-(oxetan-3-yl)ethyl)-N,5-dimethyl-2-(2H-1,2,3-triazol-2-yl)benzamide] here?
**A.** The IC50 was over 10 µM.
